# Experimental data published in US20160030365A1, “PHARMACEUTICAL OR COSMETIC COMPOSITION SUITABLE TO PRESERVE EPITHELIAL STEM CELLS” (GIULIANI S.P.A., priority 2013, published 2016).
# Tested on: keratin K15 (cytokeratin 15, CK15) of human epithelial hair follicle stem cells
# Assay: Quantitative immunohistochemistry for keratin K15 in organ-cultured human hair follicles
# Type: cell-based
# Conditions: for relative intensity of immunohistochemistry of keratin K15: microdissected human anagen VI hair follicles in organ culture, 6 days, relative intensity of the vehicle=1
# From the text: The scope of the study is to determine the effects of N^1-methyl spermidine, a compound of formula (I) of this invention, on the biomarker keratin K15 (cytokeratin 15, CK15) of human epithelial hair follicle stem cells (heHFSCs). As reference on this point in the literature we can quote Kloepper JE et al. (2008), Immunophenotyping of the human bulge region: the quest to define useful in situ markers for human epithelial hair follicle stem cells and their niche. Exp Dermatol 17: 592-609.
# Scalp samples were collected from two women who were submitted to surgical lifting, after obtaining their informed consent. Experiments were performed in compliance with the Helsinki principles, with the Ethics Committee's approval. Details of samples are described in Table 1 below.
# J Dermatol Sci 7: SuppIS 55-72.
# N^1-methyl-spermidine of the invention or spermidine or the vehicle were changed every 48 hours with the culture medium. A summary of the study procedure is presented in Table 2 below, in which N^1-methyl spermidine, the compound of formula (II) of this invention, used in the test at concentrations of 0.5 and 1.5 μM is the active substance', while spermidine was used as a control at the concentration of 0.5 μM.
# The tyramide signal amplification method was used to assess the expression of keratin K15, as described in the abovementioned paper by Kloepper et al. (2008). The cryosections fixed in acetone were washed thrice for 5 minutes using the buffer (0.1 mol/L Tris-HCl, pH 7.5, containing 0.15 mol/L NaCl and 0.05% Tween 20) TNT (Tris-HCl NaCl Tween). Later, peroxidase was inhibited by washing with 3% H2O2 in phosphate buffered saline (PBS) for 15 min. Preincubation was performed with avidin and biotin for 15 minutes, and with 5% normal goat serum in TNT for 30 minutes with intermediate lavage. The Mouse Anti-Human K15 antibody (clone LHK15, Chemicon, Billerica, USA) was diluted in TNT and incubated for one night at 4° C. This incubation period was followed by a second incubation period with a secondary biotinylated Goat Anti-Mouse antibody (1:200 in TNT) for 45 minutes in RT. […] Immunohistochemistry intensity was quantified with the ImageJ software (National Institutes of Health). Stain intensity of the defined reference regions of the follicle was measured and compared between the control groups and groups treated with N^1-methyl spermidine at the concentrations of 0.5 and 1.5 μM, or with spermidine 0.5 μM. • Statistical Analysis
# The statistical analysis was performed using a two tailed Student t-test for samples that were not coupled. To group the two experiments, each treatment group was compared with the control group (mean value), and the relative variation in expression was calculated.
structure (smiles),measurement,setting,value
"CN(CCCN)CCCCN [N^1-methyl spermidine, N-(3-aminopropyl)-N^1-methyl-1,4-butandiamine]",inductive effect towards keratin K15 compared with an equal concentration of spermidine,0.5 μM vs spermidine 0.5 μM,higher than that of an equal concentration of 0.5 μM of spermidine
same,relative intensity of immunohistochemistry of keratin K15,0.5 μM,1.739
same,relative intensity of immunohistochemistry of keratin K15,1.5 μM,1.806
"NCCCCNCCCN [spermidine, reference compound]",relative intensity of immunohistochemistry of keratin K15,0.5 μM,1.12
